SMILES strings stand for the structures.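 Interpolation was linear, between the two tested concentrations surrounding the appropriate level; five concentrations were tested over 48 hours in 96-well plates. Here, GI50 denotes the concentration required for 50% inhibition of growth. TGI is the concentration that stops growth completely.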

Test systems include EKVX NSCLC; HCC-2998 colon; HL-60(TB) leukemia; OVCAR-4 ovarian; OVCAR-8 ovarian; RXF 393 renal; SF-539 CNS; TK-10 renal; UO-31 renal; DU-145 prostate.
Holding throughout (assay): NCI tumour cell line growth inhibition, 48 h

On to `Cc1ccc(S(=O)(=O)N[C@H](C(=O)O)c2ccccc2)cc1`, for which the TGI in the assay on EKVX NSCLC, in the assay with HCC-2998 colon, in the assay with HL-60(TB) leukemia, with OVCAR-4 ovarian, in the assay with OVCAR-8 ovarian and in the assay on RXF 393 renal was greater than 100 µM throughout. The TGI in the assay with SF-539 CNS, in the assay on TK-10 renal and in the assay with UO-31 renal was greater than 100 µM in each case.

On to `N=C(N)c1ccc(OCc2cccc(COc3ccc(C(=N)N)cc3)c2)cc1`, for which the GI50 is 6.12 µM in the assay with DU-145 prostate; 2.85 µM in the assay on EKVX NSCLC; 11.4 µM in the assay on HCC-2998 colon; 14.1 µM with OVCAR-4 ovarian; 11.3 µM with OVCAR-8 ovarian; 1.92 µM in the assay on SF-539 CNS. For the same molecule, the GI50 is 7.61 µM with TK-10 renal and 42.1 µM in the assay with UO-31 renal. Also, the TGI in the assay on DU-145 prostate came to 20.3 µM; in the assay on EKVX NSCLC it was 8.25 µM; in the assay with HCC-2998 colon, 33.2 µM; in the assay with OVCAR-4 ovarian it was 99.6 µM; in the assay with OVCAR-8 ovarian it was 38.4 µM; in the assay with SF-539 CNS it was 5.1 µM. Besides, the TGI is 21 µM in the assay on TK-10 renal and greater than 100 µM with UO-31 renal.

On to `NC1=NC(=O)/C(=C/c2ccccc2[N+](=O)[O-])C(N)=N1`, for which the TGI in the assay with EKVX NSCLC, in the assay on HCC-2998 colon, in the assay on HL-60(TB) leukemia, in the assay with OVCAR-4 ovarian, in the assay with OVCAR-8 ovarian and with RXF 393 renal was greater than 100 µM in each case. The TGI with SF-539 CNS, in the assay with TK-10 renal and with UO-31 renal was greater than 100 µM in each case.

Regarding `CCOc1ccccc1NC(=O)CC1C(=O)Nc2ccccc2S1=O` (configuration not stated), the TGI with EKVX NSCLC, with HCC-2998 colon, in the assay on HL-60(TB) leukemia, in the assay on OVCAR-4 ovarian, in the assay on OVCAR-8 ovarian and in the assay on RXF 393 renal was greater than 100 µM in each case. Besides, the TGI in the assay on SF-539 CNS, with TK-10 renal and with UO-31 renal was greater than 100 µM in each case.

In the case of `CC[C@]1(O)CC(OC2CC(N(C)C)C(O)C(C)O2)c2c(cc3c(c2O)C(=O)c2c(O)cccc2C3=O)[C@@H]1C(=O)OC` (some centres not stated), the TGI in the assay with DU-145 prostate is 12.9 µM; in the assay on EKVX NSCLC it was 3.86 µM; with HCC-2998 colon, 1.54 µM; in the assay with OVCAR-4 ovarian it was 1.49 µM; in the assay on OVCAR-8 ovarian, 5.11 µM; in the assay on RXF 393 renal, 1.76 µM. Further, the values for the TGI with SF-539 CNS, with TK-10 renal and in the assay with UO-31 renal were 2.51 µM, 5.07 µM and 0.635 µM, respectively.

As for `CCCCCCCCCCCCNC(C)=O`, the TGI with DU-145 prostate was greater than 100 µM; with EKVX NSCLC it was 25.6 µM; with HCC-2998 colon, 37.5 µM; in the assay with OVCAR-8 ovarian, 44.5 µM; in the assay on RXF 393 renal, 43.4 µM; in the assay with SF-539 CNS it was 29.9 µM. Also, the TGI with TK-10 renal was 31.6 µM; with UO-31 renal, 46.9 µM.

On to `C[N+](C)(C)CC1CCCC/C1=N\OC(=O)c1ccccc1` (configuration not stated), for which the TGI with EKVX NSCLC, in the assay on HCC-2998 colon, in the assay with OVCAR-4 ovarian, in the assay with OVCAR-8 ovarian, with RXF 393 renal and in the assay on SF-539 CNS was greater than 100 µM in each case. Further, the TGI with TK-10 renal and in the assay with UO-31 renal was greater than 100 µM throughout.

For `CCOC(=O)c1c2c(c(O)c3ccccc3c(O)n(Cc3ccc(OC)cc3)c1C)C(=O)C=CC2=O`, the GI50 in the assay with DU-145 prostate, in the assay on EKVX NSCLC, with HCC-2998 colon, in the assay on OVCAR-4 ovarian, with OVCAR-8 ovarian and in the assay with RXF 393 renal was greater than 100 µM in each case. The GI50 with SF-539 CNS is 84.6 µM; with TK-10 renal it was greater than 100 µM; in the assay on UO-31 renal it was greater than 100 µM. Also, the TGI in the assay on DU-145 prostate, in the assay with EKVX NSCLC, in the assay with HCC-2998 colon, in the assay on OVCAR-4 ovarian, in the assay on OVCAR-8 ovarian and in the assay on RXF 393 renal was greater than 100 µM in each case. The TGI in the assay with SF-539 CNS, in the assay with TK-10 renal and in the assay on UO-31 renal was greater than 100 µM in each case.

Take `COc1cc(/C=C/c2ccncc2)cc(OC)c1OC`: the TGI was greater than 100 µM with EKVX NSCLC; 97.8 µM with HL-60(TB) leukemia; greater than 100 µM in the assay on OVCAR-4 ovarian; greater than 100 µM in the assay on OVCAR-8 ovarian; 99.2 µM in the assay with RXF 393 renal; greater than 100 µM in the assay with SF-539 CNS. Further, the TGI with TK-10 renal was greater than 100 µM; in the assay on UO-31 renal, 83.1 µM.

As to `CN1C(=O)CC(c2cccc(C3CC(=O)N(C)C3=O)n2)C1=O` (configuration not stated), the TGI in the assay with EKVX NSCLC, in the assay with HCC-2998 colon, with HL-60(TB) leukemia, in the assay with OVCAR-4 ovarian, with OVCAR-8 ovarian and in the assay with RXF 393 renal was greater than 100 µM each time. In addition, the TGI with SF-539 CNS, in the assay on TK-10 renal and with UO-31 renal was greater than 100 µM throughout.

As for `Cc1ccccc1NC(=O)C(=O)C(C#N)c1ccc(Cl)cc1` (configuration not stated), the TGI in the assay with EKVX NSCLC is greater than 100 µM; in the assay with HCC-2998 colon, 75.9 µM; with HL-60(TB) leukemia, greater than 100 µM; in the assay with OVCAR-8 ovarian it was greater than 100 µM; with RXF 393 renal it was greater than 100 µM; with SF-539 CNS, 83.5 µM. Also, the TGI in the assay on TK-10 renal and with UO-31 renal was greater than 100 µM throughout.

As to `CC1CC(C2=CC=CCS2)=Nc2ccccc2S1` (configuration not stated), the TGI in the assay with EKVX NSCLC, with HCC-2998 colon, in the assay on HL-60(TB) leukemia, with OVCAR-4 ovarian, with OVCAR-8 ovarian and with RXF 393 renal was greater than 100 µM each time. The TGI in the assay on SF-539 CNS, in the assay on TK-10 renal and in the assay with UO-31 renal was greater than 100 µM each time.

With `COc1ccccc1/C=C(\C#N)c1ccccc1`, the TGI in the assay on HCC-2998 colon was greater than 100 µM; in the assay on OVCAR-4 ovarian, greater than 100 µM; in the assay on OVCAR-8 ovarian, greater than 100 µM; in the assay on RXF 393 renal, 69.3 µM; with SF-539 CNS it was greater than 100 µM; in the assay on TK-10 renal it was 95.6 µM. The molecule further registered a TGI in the assay with UO-31 renal of 97.5 µM.

The record behind these values is PubChem BioAssay (NCI).
